# Like-named read-outs stand apart in the source and are kept apart here.
# Legend:
# A2A receptor = A2A receptor (Sus scrofa, UniProt K9IW67); test: Affinity for the A2A receptor in a pig striatum membrane prep (displacement of tritiated ZM 241385); assay type: binding; conditions: pig striatal membranes, tritiated ZM 241385 2 nM, 23 C 2 h; read-out: A2a Ki
# Protocol: Compounds of this invention were assayed to determine their affinity for the A2A receptor in a pig striatum membrane prep. Briefly, 0.2 mg of pig striatal membranes were treated with adenosine deaminase and 50 mM Tris buffer (pH=7.4) followed by mixing. […] After incubation at 23 C for 2 h, then the solutions were filtered using a membrane harvester using multiple washing of the membranes (3×). The filter disks were counted in scintillation cocktail affording the amount of displacement of tritiated ZM by the competitive binding compounds of this invention. Greater than a 5 point curve was used to generate IC50's and the number of experiments is indicated in the column marked in Table 1 below.
# human A1 AdoR = molecular target: T1, human A1 AdoR (Homo sapiens, UniProt P30542); test: Competition binding, [3H]DPCPX binding sites on CHO-hA1AdoR cell membranes; conditions: Gpp(NH)p 100 μM
# T1 construct: expressed in transfected cells
# T1 sequence (P30542 1-326): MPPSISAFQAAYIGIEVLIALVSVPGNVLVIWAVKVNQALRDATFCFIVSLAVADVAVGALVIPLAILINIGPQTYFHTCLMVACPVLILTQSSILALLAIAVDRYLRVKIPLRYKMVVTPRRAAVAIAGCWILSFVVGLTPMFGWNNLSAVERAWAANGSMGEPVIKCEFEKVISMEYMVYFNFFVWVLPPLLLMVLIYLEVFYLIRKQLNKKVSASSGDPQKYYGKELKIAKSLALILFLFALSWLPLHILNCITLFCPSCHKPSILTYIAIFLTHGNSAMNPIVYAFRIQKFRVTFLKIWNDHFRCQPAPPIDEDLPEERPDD
# A1 AdoR [1] = molecular target: T2, A1 AdoR (Rattus norvegicus, UniProt P25099); test: A-V nodal conduction time (negative dromotropic effect) in rat isolated perfused hearts; conditions: Compound 18 0.1-30 μM, CVT510 100-400 nM
# T2 construct: from tissue; host or cells: Sprague Dawley rat isolated perfused heart
# T2 sequence (P25099 1-326): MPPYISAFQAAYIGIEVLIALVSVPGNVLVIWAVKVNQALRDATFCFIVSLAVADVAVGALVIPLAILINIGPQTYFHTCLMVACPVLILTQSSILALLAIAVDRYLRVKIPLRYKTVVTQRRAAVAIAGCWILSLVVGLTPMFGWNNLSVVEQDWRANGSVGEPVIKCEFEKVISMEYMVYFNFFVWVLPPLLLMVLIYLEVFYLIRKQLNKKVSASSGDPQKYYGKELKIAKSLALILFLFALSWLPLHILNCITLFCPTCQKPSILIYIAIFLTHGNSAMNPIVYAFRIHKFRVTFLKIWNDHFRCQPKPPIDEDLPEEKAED
# Protocol: In experiments in which A1 adenosine receptor-mediated negative dromotropic effect was measured, atrial and ventricular surface electrograms were recorded during constant atrial pacing. The effect of various adenosine receptor agonists on atrioventricular conduction time was determined as described previously by Jenkins and Belardinelli Circ. Res. 63: 97-116 (1988).
# (§1) Rats and guinea pigs, of either sex weighing from 230 to 260 grams and 300 to 350 grams, respectively, were used in this study. Animals were anesthetized by peritoneal injection of a cocktail containing ketamine and xylazine (ketamine 100 mg, xylazine 20 mg/ml). The chest was opened and the heart quickly removed. The heart was briefly rinse in ice-cold Krebs-Henseleit solution (see below), and the aorta cannulated. […]
# (§2) A1 adenosine receptor-mediated depression of A-V nodal conduction time (negative dromotropic effect) was measured. Atrial and ventricular surface electrograms in rats and H is bundle electrogram in guinea pigs, were recorded during constant atrial pacing. The effects of Compound 18 on atrioventricular conduction time and stimulus-to-His-bundle (S-H interval) were determined as described previously by Jenkins and Belardinelli (1988).
# The effects of Compound 18 on coronary conductance (A2A effect) and atrioventricular conduction time or stimulus-to-His-bundle (S-H) interval (A1 effect) was then determined. […]
# A1 AdoR [2] = molecular target: T3, A1 AdoR (Cavia porcellus, UniProt P47745); test: Stimulus-to-His-bundle (S-H) interval in guinea pig isolated perfused hearts; conditions: concentrations as high as 50 μM
# T3 construct: from tissue; host or cells: Hartley guinea pig isolated perfused heart
# T3 sequence (P47745 1-326): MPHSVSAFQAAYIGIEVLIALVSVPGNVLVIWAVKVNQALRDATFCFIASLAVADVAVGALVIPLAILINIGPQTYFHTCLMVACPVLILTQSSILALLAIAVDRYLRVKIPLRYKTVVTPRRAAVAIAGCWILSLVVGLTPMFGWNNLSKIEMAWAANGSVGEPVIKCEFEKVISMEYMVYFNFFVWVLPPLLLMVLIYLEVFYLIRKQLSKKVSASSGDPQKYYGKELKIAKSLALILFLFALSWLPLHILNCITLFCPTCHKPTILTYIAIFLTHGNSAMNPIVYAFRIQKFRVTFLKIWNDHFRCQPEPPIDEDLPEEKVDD
# Protocol: as §1, §2
# The effects of Compound 18 on coronary conductance (A2A effect) and atrioventricular conduction time or stimulus-to-His-bundle (S-H) interval (A1 effect) was then determined. […] In each experiment, concentration-response relationship of Compound 18 (n=5 rats, 5 guinea pigs) to increase coronary conductance and to prolong A-V conduction time or S-H interval was determined. […]
# A2A AdoR [3] = test: Closing statement of Example 8 on potency and efficacy as A2A AdoR agonist coronary vasodilator (test not specified)
# A2A AdoR [4] = molecular target: A2A AdoR (Rattus norvegicus, UniProt P30543); test: Increase of coronary conductance in rat isolated perfused hearts
# Protocol: (§3) Adult Sprague Dawley rats and Hartley guinea pigs of either sex weighing from 230 to 260 grams and 300 to 350 grams, respectively were used in this study. Animals were anesthetized by peritoneal injection of a cocktail containing ketamine and xylazine (ketamine 100 mg, xylazin 20 mg/ml). The chest was opened and the heart quickly removed. The heart was briefly rinse in ice-cold Krebs-Henseleit solution (see below), and the aorta cannulated. […] The heart was electrically paced at a fixed cycle length of 340 ms (250 beats/min) using a bipolar electrode place on the left atrium. The electrical stimuli were generated by a Grass stimulator (Model S48, W. Warwick, R.I.) and delivered through a Stimuli Isolation Unit (Model SIU5, Astro-Med, Inc., NY) as square-wave pulses of 3-msec in duration and amplitude of at least twice the threshold intensity.
# Coronary perfusion pressure (CPP) was measured using a pressure transducer, connected to the aortic cannula via a T-connector positioned approximately 3 cm above the heart. Coronary perfusion pressure was monitored throughout the experiment and recorded either on a chart recorder (Gould Recorder 2200S) or a computerized recording system (PowerLab/4S, ADinstruments Pty Ltd, Australia). Only hearts with CPP ranging from 60 to 85 mmHg (in the absence of drugs) were used in the study.
# One concentration was made from the stock solution by dilution into saline to yield solution of either 2×10^−4 or 2×10^−5 M. These solutions were injected into the perfusion line of the apparatus as boluses of 20 μl. In some experiments the solutions were placed into a 30 ml glass syringe and the drugs were infused at rates necessary to achieve the desired perfusate concentrations (e.g, 10, 100 nM, etc).
# Hearts were instrumented for continuous recording of coronary perfusion pressure (A2A response) and atrioventricular (A-V) conduction time or S-H interval (A1 response).
# A2A AdoR [5] = molecular target: A2A AdoR (Cavia porcellus, UniProt P46616); test: Increase of coronary conductance in guinea pig isolated perfused hearts
# Protocol: as §3
# Coronary perfusion pressure (CPP) was measured using a pressure transducer, connected to the aortic cannula via a T-connector positioned approximately 3 cm above the heart. Coronary perfusion pressure was monitored throughout the experiment and recorded either on a chart recorder (Gould Recorder 2200S) or a computerized recording system (PowerLab/4S, ADinstruments Pty Ltd, Australia). Only hearts with CPP ranging from 60 to 85 mmHg (in the absence of drugs) were used in the study. […]
# human A2A AdoR = human A2A AdoR (Homo sapiens, UniProt P29274); test: Competition binding, [3H]ZM241385 binding sites on HEK-hA2AAR cell membranes; conditions: for Ki: HEK-hA2AAR Cells, [3H]ZM241385, Gpp(NH)p 100 μM
# Protocol: To make membranes, cells were detached from the culture plates into ice-cold 50 mmol/L Tris-HCI buffer (pH7.4). The cell suspensions were homogenized with Polytron at setting 4 for 30 seconds, and spun at 48,000 g for 15 minutes. The pellets were washed three times by re-suspension in ice-cold Tris-HCI buffer and centrifugation. The final pellet was re-suspended in a small volume of Tris-HCI, aliquoted and frozen at −80° C. until used for receptor binding assays. The protein concentration of membrane suspensions was determined using the Bradford method (Bio-Rad) with bovine serum as standards.
# At the end of incubation, bound and free radioligands were separated by filtration through Whatman GF/C glass fiber filters using a Brandel tissue harvester (Gaithersburg, Md.). Triplicate determinations were performed for each concentration of the competing agent.
# The affinity (Ki) of various CVT compounds for the A1 and A2A adenosine receptor were determined by their potency to compete for [^3H]CPX (A1) or [^3H]ZM241385 (A2A) binding sites on membranes derived from CHO-hA1AdoR, PC12 or HEK-HA2AAdoR cells.
# A2A adenosine receptor = A2A adenosine receptor (Rattus norvegicus, UniProt P30543); test: Reversal time of coronary vasodilation after bolus injection in rat isolated perfused hearts; conditions: rat isolated perfused hearts, bolus into perfusion line
# Protocol: Animals were anesthetized by peritoneal injection of a cocktail containing ketamine and xylazine (ketamine 100 mg, xylazine 20 mg/ml). The chest was opened and the heart quickly removed. The heart was briefly rinse in ice-cold Krebs-Henseleit solution (see below), and the aorta cannulated. […] The heart was electrically paced at a fixed cycle length of 340 ms (250 beats/min) using a bipolar electrode place on the left atrium. The electrical stimuli were generated by a Grass stimulator (Model S48, W. Warwick, R.I) and delivered through a Stimuli Isolation Unit (Model SIU5, Astro-Med, Inc., NY) as square-wave pulses of 3 msec in duration and amplitude of at least twice the threshold intensity.
# Coronary perfusion pressure (CPP) was measured using a pressure transducer, connected to the aortic cannula via a T-connector positioned approximately 3 cm above the heart. Coronary perfusion pressure was monitored throughout the experiment and recorded either on a chart recorder (Gould Recorder 2200S) or a computerized recording system (PowerLab/4S, ADInstruments Pty Ltd, Australia). Only hearts with CPP ranging from 60 to 85 mmHg (in the absence of drugs) were used in the study.
# Protocol: Bolus injections. […] The times to 50% (t 0.5) and 90% (t 0.9) reversal of the decrease in CPP were measured. Each heart was exposed to a maximum of three vasodilators.
# A2A AdoR [6] = test: Coronary blood flow and reversal time of coronary vasodilation in open-chest anesthetized pigs; conditions: pig, intracoronary infusion 50 μg/kg/min
# Protocol: Farm pigs weighing 22-27 kg were used in this study. […] In addition, animals were used in accordance with the guidelines of the University of Kentucky Institutional Animal Care and Use Protocol.
# Anesthesia was anesthetized with ketamine (20 mg/kg, i.m.) and sodium pentobarbital (15-18 mg/kg i.v.). Anesthesia was maintained with additional sodium pentobarbital (1.5-2 mg/kg, i.v.) every 15-20 minutes. Ventilation was maintained via a tracheotomy using a mixture of room air and 100% O2. Tidal volume, respiratory rate and fraction of O2 in inspired air were adjusted to maintain normal arterial blood gas (ABG) and pH values. […] Lactate Ringers solution was administered via an ear or femoral vein, at 5-7 ml/kg/min after a initial bolus of 300-400 ml. A catheter was inserted into the femoral artery to monitor arterial blood pressure and to obtain ABG samples.
# The heart was exposed through a median sternotomy, and suspended in a pericardial cradle. Left ventricular pressure (LVP) was measured with a 5F high fidelity pressure sensitive tip transducer (Millar Instruments, Houston, Tex.) placed in the left ventricular cavity via the apex and secured with a purse string suture. A segment of the left anterior descending coronary artery (LAD), proximal to the origin of the first diagonal branch, was dissected free of, surrounding tissue. A transmit time perivascular flow probe (Transonic Systems Inc., Ithaca, N.Y.) was placed around this segment to measure coronary blood flow (CBF). Proximal to the flow probe a 24 g modified angiocatheter was inserted for intracoronary infusions. […] A2A AdoR agonists were dissolved in DMSO to produce stock concentrations of 1-5 mM, which were diluted in 0.9% saline and infused at rates of 1-1.5 ml/min. The A2A AdoR agonists were administered intracoronary. To maintain blood pressure constant, phenylephrine was administered intravenously. The phenylephrine stock solution (30 mM) was prepared in distilled water.
# Prior to initiating the experiment, a 30-minute stabilization period followed the completion of all instrumentation. After obtaining the baseline hemodynamic data the first intracoronary infusion of an A2A ADOR agonist was initiated. Infusions were maintained for 4-5 minutes to allow LAD CBF to reach a steadystate, after which the infusion was terminated. The time to recovery of 50% (t 0.5) and 90% (t 0.9) of baseline CBF were recorded. Ten to 15 minutes after CBF returned to pre-drug values a second infusion with a different agonist was started. […] The effect of a maximum of three different agonists was determined in each experiment.
# A2A AdoR (Rattus norvegicus, UniProt P30543), sequence (P30543 whole entry, the tested form may be a part): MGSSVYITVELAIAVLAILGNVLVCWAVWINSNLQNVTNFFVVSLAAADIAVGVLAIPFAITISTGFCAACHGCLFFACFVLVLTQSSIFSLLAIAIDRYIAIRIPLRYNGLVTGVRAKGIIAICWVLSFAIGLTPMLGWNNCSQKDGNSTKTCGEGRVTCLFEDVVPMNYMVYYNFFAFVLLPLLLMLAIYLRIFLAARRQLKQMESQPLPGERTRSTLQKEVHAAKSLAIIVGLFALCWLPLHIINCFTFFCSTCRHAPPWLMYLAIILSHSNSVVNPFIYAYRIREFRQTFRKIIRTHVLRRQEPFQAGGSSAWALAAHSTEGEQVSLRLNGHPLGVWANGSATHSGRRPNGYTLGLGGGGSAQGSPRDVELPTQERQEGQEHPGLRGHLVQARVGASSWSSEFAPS
# human A2A AdoR, sequence (P29274 whole entry, the tested form may be a part): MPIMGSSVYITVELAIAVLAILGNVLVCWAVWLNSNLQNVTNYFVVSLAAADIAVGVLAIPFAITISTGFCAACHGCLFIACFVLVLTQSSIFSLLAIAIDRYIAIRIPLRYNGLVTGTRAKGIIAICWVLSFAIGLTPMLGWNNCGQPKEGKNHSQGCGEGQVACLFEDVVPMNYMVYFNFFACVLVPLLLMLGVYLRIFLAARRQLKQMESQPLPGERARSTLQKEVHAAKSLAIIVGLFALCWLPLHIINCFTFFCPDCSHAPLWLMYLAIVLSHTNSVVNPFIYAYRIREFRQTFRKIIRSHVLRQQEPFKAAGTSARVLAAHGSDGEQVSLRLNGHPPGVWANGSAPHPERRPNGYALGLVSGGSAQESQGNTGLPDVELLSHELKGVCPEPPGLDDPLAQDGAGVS
# A2A adenosine receptor, sequence (P30543 whole entry, the tested form may be a part): as the sequence (P30543 whole entry, the tested form may be a part) above
# A2A AdoR (Cavia porcellus, UniProt P46616), sequence (P46616 whole entry, the tested form may be a part): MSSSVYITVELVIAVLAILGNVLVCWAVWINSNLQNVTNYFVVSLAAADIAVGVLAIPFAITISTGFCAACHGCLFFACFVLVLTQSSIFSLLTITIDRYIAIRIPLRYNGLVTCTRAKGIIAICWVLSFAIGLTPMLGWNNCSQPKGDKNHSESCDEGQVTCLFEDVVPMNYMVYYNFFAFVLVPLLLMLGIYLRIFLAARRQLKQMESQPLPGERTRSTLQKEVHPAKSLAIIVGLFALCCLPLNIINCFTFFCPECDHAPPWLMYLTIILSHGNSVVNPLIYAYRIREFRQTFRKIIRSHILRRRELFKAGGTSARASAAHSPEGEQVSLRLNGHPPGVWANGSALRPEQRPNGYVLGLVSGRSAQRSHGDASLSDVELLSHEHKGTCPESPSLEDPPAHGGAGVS
# A2A receptor, sequence (K9IW67 1-409): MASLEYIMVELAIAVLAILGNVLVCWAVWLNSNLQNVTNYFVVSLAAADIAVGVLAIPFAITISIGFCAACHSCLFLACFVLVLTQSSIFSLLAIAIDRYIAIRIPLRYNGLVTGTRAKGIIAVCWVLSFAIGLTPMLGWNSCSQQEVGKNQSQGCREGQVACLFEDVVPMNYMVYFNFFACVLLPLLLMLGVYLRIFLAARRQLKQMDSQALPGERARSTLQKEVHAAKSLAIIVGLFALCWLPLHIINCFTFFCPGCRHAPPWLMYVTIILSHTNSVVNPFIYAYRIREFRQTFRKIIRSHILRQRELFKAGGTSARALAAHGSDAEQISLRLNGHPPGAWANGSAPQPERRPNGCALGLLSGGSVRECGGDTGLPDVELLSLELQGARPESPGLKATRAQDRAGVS
structure (smiles),measurement,setting,value
"CCCCCn1cc(-c2nc(N)c3ncn([C@@H]4O[C@H](CO)[C@@H](O)[C@H]4O)c3n2)cn1 [Compound 18, (4S,2R,3R,5R)-2-[6-amino-2-(1-pentylpyrazol-4-yl)purin-9 yl]-5-(hydroxymethyl)oxolane-3,4-diol]",Ki,A2A receptor,7090 ± 780 nM
same,Ki,"human A1 AdoR; read-out: Binding Affinity Ki, CHO-hA1AR",5840 nM
same,Ki,"human A1 AdoR; read-out: Binding Affinity pKi ± SEM, CHO-hA1AR (converted)",5750 nM
same,effect on A-V nodal conduction time,A1 AdoR [1],did not prolong
same,effect on S-H interval,A1 AdoR [2],no prolongation
same,agonist efficacy to cause coronary vasodilation,A2A AdoR [3],full agonists
same,less potent than the prototypical agonist CGS21680,A2A AdoR [3]; relative to CGS21680,10 fold
same,EC50,"A2A AdoR [4]; EC50 to increase coronary conductance in rat hearts, Example 7, n=5 rats",68.9 ± 9.6 nM
same,EC50,"A2A AdoR [4]; Potency (EC50) to increase coronary conductance, Rat, rat isolated perfused hearts, Table 3",67.9 ± 16.7 nM
same,effect on coronary conductance,"A2A AdoR [4]; isolated perfused hearts (36 rats and 18 guinea pigs), atrial cycle length 340 msec",concentration-dependent increase
same,relative potency in increasing coronary conductance,"A2A AdoR [4]; isolated perfused hearts, rat and guinea pig",about as potent as adenosine
same,EC50,A2A AdoR [5],203 ± 22 nM
same,greater affinity for A2A than A1 AdoR,human A2A AdoR; A2A vs A1 AdoR,> 2 fold
same,Ki,human A2A AdoR; Binding Affinity Ki,2900 nM
same,Ki,human A2A AdoR; Binding Affinity pKi ± SEM,2880 nM
same,"t 0.5, time to 50% reversal of the increase in coronary conductance",A2A adenosine receptor,3.4 ± 0.5 min
same,"t 0.9, time to 90% reversal of the increase in coronary conductance",A2A adenosine receptor,8.4 ± 2.2 min
same,"CBF (""Fold Increase"") above baseline, maximal",A2A AdoR [6],3.33 ± 0.58 fold
same,"t0.5, time to 50% reversal of the increase in coronary blood flow",A2A AdoR [6],3.1 ± 0.9 min
same,"t0.9, time to 90% reversal of the increase in coronary blood flow",A2A AdoR [6],12.0 ± 1.0 min
